Some test systems named below: M14 melanoma; 786-0 renal; PC-3 prostate; SNB-75 CNS; HOP-92 NSCLC; OVCAR-4 ovarian; NCI-H226 lung; ACHN renal; NCI/ADR-RES ovarian.
Common to all, as to experiment: NCI-60 cell line screen, 48 h

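Following 48 hours of exposure in 96-well plates, responses at five concentrations were used to interpolate endpoints linearly. The concentration for full growth arrest is given as TGI.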

For `COc1ccc2nc3c(nc2c1)C(C)(C)C=C3c1ccc(Br)cc1`, the TGI in the test on M14 melanoma, in the test with 786-0 renal, in the test on PC-3 prostate, with SNB-75 CNS, in the test on HOP-92 NSCLC and in the test with OVCAR-4 ovarian was more than 100 µM throughout. The TGI in the test with NCI-H226 lung, in the test on ACHN renal and with NCI/ADR-RES ovarian was more than 100 µM in each case.
For `CCOC(=O)/C(C(N)=O)=C(/O)c1cnccn1`, the TGI with M14 melanoma, in the test on 786-0 renal, in the test on PC-3 prostate, with SNB-75 CNS, with HOP-92 NSCLC and with OVCAR-4 ovarian was more than 100 µM throughout. The TGI in the test with NCI-H226 lung, in the test with ACHN renal and in the test with NCI/ADR-RES ovarian was more than 100 µM throughout.
With `CC(=O)O[C@H]1C(=O)[C@@]2(C)C(C(OC(=O)c3ccccc3)[C@]3(O)CC(OC(=O)C(O)C(NC(=O)c4cccc(Cl)c4)c4ccccc4)C(C)=C1C3(C)C)[C@]1(OC(C)=O)CO[C@@H]1C[C@@H]2O` (some centres undefined), the TGI in the test with M14 melanoma is more than 10 µM; in the test with 786-0 renal it was more than 10 µM; in the test on PC-3 prostate it was more than 10 µM; in the test with SNB-75 CNS, 8.9 µM; in the test with HOP-92 NSCLC, more than 10 µM; with OVCAR-4 ovarian, more than 10 µM. The TGI in the test on NCI-H226 lung, in the test on ACHN renal and with NCI/ADR-RES ovarian was more than 10 µM each time.
On to `C#CCn1c(=O)c2cc(OC)c(OC)cc2n(CC#C)c1=O`, for which the TGI in the test with M14 melanoma, in the test on 786-0 renal, in the test with PC-3 prostate, in the test on SNB-75 CNS, in the test with HOP-92 NSCLC and with OVCAR-4 ovarian was more than 10 µM each time. Also, the TGI in the test on NCI-H226 lung, in the test with ACHN renal and in the test with NCI/ADR-RES ovarian was more than 10 µM in each case.
Turning to `C=c1c2ccccc2oc2nc3[nH]c(N)c(C#N)c(N)c3c(=N)c12`, the TGI was more than 100 µM in the test on M14 melanoma; more than 100 µM in the test with 786-0 renal; 66.9 µM in the test with PC-3 prostate; 90.3 µM in the test with SNB-75 CNS; more than 100 µM in the test with HOP-92 NSCLC; more than 100 µM in the test on OVCAR-4 ovarian. In addition, the TGI in the test on NCI-H226 lung was 74.9 µM; in the test on ACHN renal it was more than 100 µM; with NCI/ADR-RES ovarian, more than 100 µM.
Take `Clc1ccc(CCNCCNC2(c3cc4ccccc4s3)CCCCC2)cc1Cl`: the TGI with M14 melanoma was 3.97 µM; with 786-0 renal, 3.65 µM; in the test on PC-3 prostate, 3.11 µM; with SNB-75 CNS, 3.72 µM; in the test on HOP-92 NSCLC it was 3.15 µM; in the test on OVCAR-4 ovarian it was 3.17 µM. For the same molecule, the TGI with NCI-H226 lung came to 3.64 µM; in the test with ACHN renal, 3.1 µM; in the test on NCI/ADR-RES ovarian, 3.47 µM.
With `COc1c(C(=O)CC2c3c(cc4oc(C)cc(=O)c4c3OC)OC(=N)C2c2nc3ccccc3[nH]2)c(O)c(OC)c2occc12` (centres undefined), the TGI in the test with M14 melanoma, in the test with 786-0 renal, with PC-3 prostate, in the test with SNB-75 CNS, in the test with HOP-92 NSCLC and in the test on OVCAR-4 ovarian was more than 100 µM each time. Further, the TGI in the test on NCI-H226 lung, in the test with ACHN renal and in the test with NCI/ADR-RES ovarian was more than 100 µM in each case.
As for `C1=Nc2ccc(cc2)-c2ccc(cc2)N=Cc2ccccc2OCc2cccc(n2)COc2ccccc21`, the TGI with M14 melanoma was more than 100 µM; in the test with 786-0 renal, 33.1 µM; in the test with PC-3 prostate, more than 100 µM; with SNB-75 CNS, 12.1 µM; with HOP-92 NSCLC, more than 60 µM; in the test on OVCAR-4 ovarian it was more than 100 µM. Moreover, the TGI with NCI-H226 lung is more than 100 µM; in the test with ACHN renal, more than 72.9 µM; in the test with NCI/ADR-RES ovarian, more than 100 µM.
Take `COc1cc([C@@H]2c3cc4c(cc3[C@H](OC3OC5COC(C(C)C)OC5C(O)C3O)C3COC(=O)[C@@H]32)OCO4)cc(OC)c1OC` (some centres undefined): the TGI is more than 33 µM in the test with M14 melanoma; 12.5 µM with 786-0 renal; 22.4 µM in the test on PC-3 prostate; 96.8 µM in the test with SNB-75 CNS; 24.6 µM with HOP-92 NSCLC; more than 100 µM in the test on OVCAR-4 ovarian. Also, the results for the TGI in the test on NCI-H226 lung, in the test on ACHN renal and in the test with NCI/ADR-RES ovarian were 12.6 µM, 21.2 µM and more than 79.5 µM, respectively.
As for `O=C(O)Cn1cnc2c(=O)[nH]c(Nc3ccccc3)nc21`, the TGI with M14 melanoma, in the test with 786-0 renal, in the test on PC-3 prostate, in the test on SNB-75 CNS, with HOP-92 NSCLC and in the test on OVCAR-4 ovarian was more than 100 µM each time. In addition, the TGI with NCI-H226 lung, with ACHN renal and in the test on NCI/ADR-RES ovarian was more than 100 µM throughout.
For the molecule `CN(C)CCNC(=O)c1cccc2c(NC(CCCN=C(N)N)C(=O)O)c3ccccc3nc12` (centres undefined), the TGI was more than 100 µM in the test with M14 melanoma; more than 100 µM in the test on 786-0 renal; more than 100 µM in the test with PC-3 prostate; 34.5 µM with SNB-75 CNS; 51.1 µM in the test on HOP-92 NSCLC; 27.7 µM in the test on OVCAR-4 ovarian. Also, the TGI is 22.8 µM in the test with NCI-H226 lung, more than 100 µM with ACHN renal and 25.1 µM in the test on NCI/ADR-RES ovarian.
`Nc1nc(Cl)cc(Oc2ccc(Cl)cc2)n1`: the TGI with M14 melanoma, in the test with 786-0 renal, in the test on PC-3 prostate, with SNB-75 CNS, with HOP-92 NSCLC and in the test with OVCAR-4 ovarian was more than 100 µM in each case. The TGI in the test on NCI-H226 lung, in the test with ACHN renal and with NCI/ADR-RES ovarian was more than 100 µM each time.
On to `CN1CN(c2ccccc2)C2(CCN(C(=O)OC(C)(C)C)CC2)C1=O`, for which the TGI in the test with M14 melanoma, in the test on 786-0 renal, in the test with PC-3 prostate, in the test on SNB-75 CNS, in the test on HOP-92 NSCLC and in the test with OVCAR-4 ovarian was more than 100 µM throughout. In addition, the TGI in the test with NCI-H226 lung, in the test on ACHN renal and in the test with NCI/ADR-RES ovarian was more than 100 µM throughout.
As to `Cc1ccnc2[nH]c(-c3ccc(Cl)cc3)cc(=O)c12`, the TGI with M14 melanoma is more than 100 µM; with 786-0 renal, more than 100 µM; with PC-3 prostate it was more than 100 µM; in the test on SNB-75 CNS, 25.8 µM; with HOP-92 NSCLC, more than 100 µM; with OVCAR-4 ovarian, more than 100 µM. In addition, the TGI in the test on NCI-H226 lung was more than 30.7 µM; in the test on ACHN renal, more than 100 µM; in the test with NCI/ADR-RES ovarian it was more than 100 µM.
Consider `COc1cc2c(cc1OC)C/C(=N\O)c1cc(OC)c(OC)cc1/C=C\2`, for which the TGI was 27.2 µM in the test with M14 melanoma; more than 100 µM with 786-0 renal; more than 100 µM with PC-3 prostate; 78.1 µM in the test on SNB-75 CNS; more than 100 µM in the test on HOP-92 NSCLC; more than 100 µM in the test with OVCAR-4 ovarian. In addition, the TGI in the test on NCI-H226 lung was 45.5 µM; in the test on ACHN renal it was more than 100 µM; in the test with NCI/ADR-RES ovarian, 89.3 µM.
Regarding `OC[C@@H](O)[C@H](O)[C@H](O)[C@@H](O)C1SCCCS1`, the TGI in the test on M14 melanoma is more than 100 µM; with 786-0 renal it was more than 100 µM; with PC-3 prostate, more than 100 µM; with SNB-75 CNS, more than 100 µM; with HOP-92 NSCLC it was 92.5 µM; with OVCAR-4 ovarian, more than 100 µM. Further, the TGI in the test on NCI-H226 lung, with ACHN renal and in the test with NCI/ADR-RES ovarian was more than 100 µM each time.
Turning to `Cc1[nH]c(-c2ccccc2)c(O)c1C(=O)OC1CC(C)CCC1C(C)C` (centres undefined), the TGI turned out to be 29 µM with M14 melanoma; 28.6 µM in the test on 786-0 renal; 26.7 µM with PC-3 prostate; 34.3 µM with SNB-75 CNS; 32.7 µM with HOP-92 NSCLC; 27.4 µM with OVCAR-4 ovarian. For the same molecule, the TGI with NCI-H226 lung was found to be 30.9 µM; in the test with ACHN renal, 30 µM; in the test with NCI/ADR-RES ovarian, 28.2 µM.
With `C=C1C(O)C2OC(=O)C(=C)C2C(OC(=O)/C(C)=C/C)CC2(C)OC2C2OC12` (centres undefined), the TGI with M14 melanoma is more than 100 µM; in the test with 786-0 renal it was 42.5 µM; in the test with PC-3 prostate, 54.4 µM; with SNB-75 CNS it was more than 100 µM; in the test with HOP-92 NSCLC it was 65.4 µM; with OVCAR-4 ovarian, more than 100 µM. The TGI is more than 100 µM in the test with NCI-H226 lung, 15.5 µM in the test with ACHN renal and more than 100 µM in the test with NCI/ADR-RES ovarian.
For `CCN1CCC(O)(/C=C/c2ccc(Cl)c(Cl)c2)C(C(=O)/C=C/c2ccc(Cl)c(Cl)c2)C1` (centres undefined), the TGI with M14 melanoma was found to be 1.76 µM; in the test with 786-0 renal it was 2.7 µM; with PC-3 prostate, 1.05 µM; with SNB-75 CNS it was 2.37 µM; in the test with HOP-92 NSCLC, 1.58 µM; in the test on OVCAR-4 ovarian it was 2.21 µM. Moreover, the figures for the TGI in the test with NCI-H226 lung, with ACHN renal and in the test with NCI/ADR-RES ovarian were 3.81 µM, 2.43 µM and 2.27 µM, respectively.
Consider `CC(C)C(C=O)C(O)(C(F)(F)F)C(F)(F)F` (centres undefined), for which the TGI in the test with M14 melanoma, in the test with 786-0 renal, in the test on PC-3 prostate, in the test on SNB-75 CNS, with HOP-92 NSCLC and with OVCAR-4 ovarian was more than 100 µM throughout. In addition, the TGI with NCI-H226 lung, with ACHN renal and in the test on NCI/ADR-RES ovarian was more than 100 µM each time.
Consider `COc1cc(/C=[N+](\[O-])c2ccccc2Cl)ccc1OC(=S)S`, for which the TGI with M14 melanoma was more than 100 µM; with 786-0 renal, more than 100 µM; in the test on PC-3 prostate, more than 100 µM; in the test on SNB-75 CNS it was 63.6 µM; in the test on HOP-92 NSCLC it was 49.2 µM; in the test with OVCAR-4 ovarian, 27.8 µM. The TGI is more than 100 µM in the test with NCI-H226 lung, more than 100 µM in the test with ACHN renal and 76.4 µM in the test with NCI/ADR-RES ovarian.

The values above are taken from PubChem BioAssay (NCI).
